From ChEMBL document CHEMBL2086257, “Rhododendric acid A, a new ursane-type PTP1B inhibitor from the endangered plant Rhododendron brachycarpum G. Don” (Bioorg Med Chem Lett, 2012)

What follows are compounds tested against T1, Tyrosine-protein phosphatase non-receptor type 1 (Homo sapiens, UniProt P18031) (assay: Inhibition of human recombinant PTP1B using p-nitrophenyl phosphate as substrate assessed as p-nitrophenol release after 30 mins).
T1 sequence (P18031 whole entry): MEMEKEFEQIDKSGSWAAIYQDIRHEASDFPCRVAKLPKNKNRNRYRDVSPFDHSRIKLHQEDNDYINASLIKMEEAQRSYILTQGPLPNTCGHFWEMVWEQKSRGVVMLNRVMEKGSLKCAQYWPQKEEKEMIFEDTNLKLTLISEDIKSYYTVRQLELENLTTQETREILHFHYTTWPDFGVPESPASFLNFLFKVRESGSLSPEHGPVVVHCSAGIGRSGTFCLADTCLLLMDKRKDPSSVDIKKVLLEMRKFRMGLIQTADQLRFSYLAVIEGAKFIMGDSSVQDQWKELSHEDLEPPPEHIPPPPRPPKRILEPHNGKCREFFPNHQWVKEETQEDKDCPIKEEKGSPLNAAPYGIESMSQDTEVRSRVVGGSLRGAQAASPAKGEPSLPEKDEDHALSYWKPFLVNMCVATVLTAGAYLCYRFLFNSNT

Structure (SMILES)	IC50 [µM]
C=C1CC[C@]2(C(=O)O)CC[C@]3(C)C(=CC[C@@H]4[C@@]5(C)C[C@@H](O)[C@@H](O)[C@@](C)(CO)[C@@H]5CC[C@]43C)[C@@H]2[C@H]1C	17.4
C[C@@H]1CC[C@]2(C(=O)O)CC[C@]3(C)C(=CC[C@@H]4[C@@]5(C)CC[C@H](O)[C@@](C)(CO)[C@@H]5CC[C@]43C)[C@@H]2[C@]1(C)O [ROTUNDIC ACID]	20.1
CCCCCCCCCCCCCCCC(=O)C1=C(O)[C@@H](CO)OC1=O	4
C=C1CC[C@]2(C(=O)O)CC[C@]3(C)C(=CC[C@@H]4[C@@]5(C)CC[C@H](O)[C@@](C)(CO)[C@@H]5CC[C@]43C)[C@@H]2[C@H]1C [RHODODENDRIC ACID A]	6.3

Further lines, results first:

IC50 [µM]	Structure (SMILES)
18	C=C1CC[C@]2(C(=O)O)CC[C@]3(C)C(=CC[C@@H]4[C@@]5(C)C[C@@H](O)[C@H](O)[C@@](C)(CO)[C@@H]5CC[C@]43C)[C@@H]2[C@H]1C [ACTINIDIC ACID]
7	C[C@H]1[C@H](C)CC[C@]2(C(=O)O)CC[C@]3(C)C(=CC[C@@H]4[C@@]5(C)C[C@@H](O)[C@H](O)C(C)(C)[C@@H]5CC[C@]43C)[C@H]12 [COROSOLIC ACID]
7.4	C[C@H]1[C@H](C)CC[C@]2(C(=O)O)CC[C@]3(C)C(=CC[C@@H]4[C@@]5(C)CC[C@H](O)[C@@](C)(CO)[C@@H]5CC[C@]43C)[C@H]12
